Experimental data reported in patent US20240158446A1, “CYCLIC COMPOUND HAVING SELECTIVE INHIBITORY ACTION ON KRAS OVER HRAS AND NRAS” (CHUGAI SEIYAKU KABUSHIKI KAISHA, priority 2021, published 2024).
Read-outs that look alike come from different tables or passages of the source. *1 amine or outer side, *2 acyl side, *3 side chain or, on linkers, in order; H or OH if unused. Where a SMILES comes first, the peptide text is derived from it. Bridges are numbered along the chain shown (N, C = ends). [ ]: non-standard residue; d: D form. The star is where a group is joined. hPhe(3-Cl-4-CF3) = N[C@@H](CCc1ccc(C(F)(F)F)c(Cl)c1)C(=O)O; X38 = C#CCN([C@@H](Cc1ccc(C(F)(F)F)cc1)C(=O)[*:2])[*:1]; X46 = CCCCN([C@@H](Cc1ccc(C)cc1)C(=O)[*:2])[*:1]; NMeGly(cPent) = CN[C@H](C(=O)O)C1CCCC1; NMeD = CN[C@@H](CC(=O)O)C(=O)O; NMeL = CN[C@@H](CC(C)C)C(=O)O; Morpholide = C1CN(*)CCO1; Ac5c = NC1(C(=O)O)CCCC1; Sar = CNCC(=O)O

Assays:
[1] = molecular target: GDP-bound HRAS wild-type protein (Homo sapiens, UniProt P01112); experiment: Binding to HRAS by surface plasmon resonance (SPR), Single Cycle Kinetics; conditions: for HRAS/KRAS (ratio of KD value for HRAS to KD value for KRAS): SPR, GDP-bound HRAS wild-type protein vs GDP-bound KRAS wild-type protein
[2] = molecular target: GDP-bound KRAS wild-type protein (Homo sapiens, UniProt P01116); experiment: Binding to KRAS by surface plasmon resonance (SPR), Single Cycle Kinetics; conditions: GDP-bound KRAS wild-type protein, read-out: KRAS KD
[3] = molecular target: GDP-bound NRAS wild-type protein (Homo sapiens, UniProt P01111); experiment: Binding to NRAS by surface plasmon resonance (SPR), Single Cycle Kinetics; conditions: for NRAS/KRAS (ratio of KD value for NRAS to KD value for KRAS): SPR, GDP-bound NRAS wild-type protein vs GDP-bound KRAS wild-type protein
[4] = SPR Single Cycle Kinetics, 1:1 binding model

Sequence of GDP-bound HRAS wild-type protein (P01112 whole entry): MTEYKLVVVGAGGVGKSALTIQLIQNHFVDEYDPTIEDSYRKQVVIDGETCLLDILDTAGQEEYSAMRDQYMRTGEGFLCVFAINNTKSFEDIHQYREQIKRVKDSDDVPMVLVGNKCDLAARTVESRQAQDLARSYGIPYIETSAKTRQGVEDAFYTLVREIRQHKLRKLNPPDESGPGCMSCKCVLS
Sequence of GDP-bound KRAS wild-type protein (P01116 whole entry): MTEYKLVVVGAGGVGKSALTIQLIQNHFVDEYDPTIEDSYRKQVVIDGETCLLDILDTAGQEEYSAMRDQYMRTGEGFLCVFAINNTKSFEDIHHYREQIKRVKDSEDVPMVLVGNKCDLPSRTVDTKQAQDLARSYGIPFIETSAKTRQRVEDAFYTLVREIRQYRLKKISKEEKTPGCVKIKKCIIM
Sequence of GDP-bound NRAS wild-type protein (P01111 whole entry): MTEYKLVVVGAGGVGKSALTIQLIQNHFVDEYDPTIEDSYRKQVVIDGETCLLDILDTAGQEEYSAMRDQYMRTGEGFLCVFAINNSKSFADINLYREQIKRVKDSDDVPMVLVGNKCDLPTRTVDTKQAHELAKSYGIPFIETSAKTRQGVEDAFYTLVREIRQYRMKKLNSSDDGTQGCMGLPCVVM

SMILES | HRAS/KRAS (ratio of KD value for HRAS to KD value for KRAS) [1] | Kd ([2]; SPR, Single Cycle Kinetics) [nM] | NRAS/KRAS (ratio of KD value for NRAS to KD value for KRAS) [3] | Kd [2, 4] [nM] | HRAS/KRAS (ratio of KD value with respect to GDP-bound HRAS wild-type protein to KD value with respect to KRAS) ([1]; SPR KD ratio HRAS/KRAS, class symbols) | NRAS/KRAS (ratio of KD value with respect to GDP-bound NRAS wild-type protein to KD value with respect to KRAS) ([3]; SPR KD ratio NRAS/KRAS, class symbols)
CCO[C@@H]1C[C@H]2C(=O)NC3(CC(C)(C)C3)C(=O)N(C)[C@@H](C3CCCC3)C(=O)N(C)[C@H](C(=O)N(C)CC)CC(=O)N(C)[C@@H](C(C)C)C(=O)N[C@@H]([C@@H](C)CC)C(=O)N(C)CC(=O)N(C)[C@H]3C/C=C\CCN(C3=O)[C@@H](Cc3ccc(C(F)(F)F)cc3)C(=O)N(C)CC(=O)N[C@@H](CCc3cc(F)c(C(F)(F)F)c(F)c3)C(=O)N2C1 [PP2034] | A (a compound having 10 or more and less than 20 is denoted as A) | 0.19 | A (a compound having 10 or more and less than 20 is denoted as A) |  |  | 
C#CCN1C(=O)CN(C)C(=O)CN(C)C(=O)[C@H]([C@@H](C)CC)NC(=O)[C@H](CC(C)C)N(C)C(=O)C[C@@H](C(=O)N2CCOCC2)N(C)C(=O)[C@H](C2CCCC2)N(C)C(=O)C2(CCCC2)NC(=O)[C@@H]2CCCN2C(=O)[C@H](CCc2ccc(C(F)(F)F)c(Cl)c2)NC(=O)CN(C)C(=O)[C@@H]1Cc1ccc(C(F)(F)F)cc1 [PP0130] ([NMeL]I[Sar][Sar][X38][Sar][hPhe(3-Cl-4-CF3)]P[Ac5c][NMeGly(cPent)][NMeD]-Morpholide; lactam N-11) | C (A compound having a KD ratio of 0.1 or more and less than 3 is denoted as C) |  | C (A compound having a KD ratio of 0.1 or more and less than 3 is denoted as C) | 0.25 |  | 
C#CC[C@H]1C(=O)N[C@@H]([C@@H](C)CC)C(=O)N(C)CC(=O)N(C)[C@H]2C/C=C\CCN(C2=O)[C@@H](Cc2ccc(C(F)(F)F)cc2)C(=O)N(C)CC(=O)N[C@@H](CCc2ccc(Cl)c(Cl)c2)C(=O)N2C[C@H](OCC)C[C@H]2C(=O)NC2(CC(C)(C)C2)C(=O)N(C)[C@@H](C2CCCC2)C(=O)N(C)[C@H](C(=O)N(C)CC)CC(=O)N1C [PP2843] |  |  |  | 0.26 | A (a compound having 10 or more and less than 20 is denoted as A) | A (a compound having 10 or more and less than 20 is denoted as A)
CCO[C@@H]1C[C@H]2C(=O)NC3(CC(C)(C)C3)C(=O)N(C)[C@@H](C(CC)CC)C(=O)N(C)[C@H](C(=O)N(C)C)CC(=O)N(C)[C@@H](C)C(=O)N[C@@H]([C@@H](C)CC)C(=O)N(C)CC(=O)N(C)[C@H]3C/C=C\CCN(C3=O)[C@@H](Cc3ccc(C)cc3)C(=O)N(C)CC(=O)N[C@@H](CCc3ccc(C(F)(F)F)c(Cl)c3)C(=O)N2C1 [PP2150] | A (a compound having 10 or more and less than 20 is denoted as A) | 3.8 | AA (a compound having 20 or more is denoted as AA) |  |  | 
CCCCN1C(=O)CN(C)C(=O)CN(C)C(=O)[C@H]([C@@H](C)CC)NC(=O)[C@H](CC(C)C)N(C)C(=O)C[C@@H](C(=O)N2CCOCC2)N(C)C(=O)[C@H](C2CCCC2)N(C)C(=O)C2(CCCC2)NC(=O)[C@@H]2CCCN2C(=O)[C@H](CCc2ccc(C(F)(F)F)c(Cl)c2)NC(=O)CN(C)C(=O)[C@@H]1Cc1ccc(C)cc1 [PP0062] ([NMeL]I[Sar][Sar][X46][Sar][hPhe(3-Cl-4-CF3)]P[Ac5c][NMeGly(cPent)][NMeD]-Morpholide; lactam N-11) | C (A compound having a KD ratio of 0.1 or more and less than 3 is denoted as C) |  | C (A compound having a KD ratio of 0.1 or more and less than 3 is denoted as C) | 0.21 |  | 
